Reference: ChEMBL document CHEMBL5120959, “Pyrrospirones K-Q, Decahydrofluorene-Class Alkaloids from the Marine-Derived Fungus Penicillium sp. SCSIO 41512” (J Nat Prod, 2022)
In brackets after ≈: the same amount, converted by molar mass.

Assays:
Bacillus subtilis = experiment: Antibacterial activity against Bacillus subtilis BS01 assessed as reduction in microbial growth after 12 hrs by microbroth dilution method; format: functional
[1] = system: Bacillus amyloliquefaciens; experiment: Antibacterial activity against Bacillus amyloliquefaciens GDMCC 60233 assessed as reduction in microbial growth after 12 hrs by microbroth dilution method; format: functional
Escherichia coli [2] = experiment: microbe, parasite or virus in culture; format: functional; conditions: ATCC 25922, time 12 hrs
Description: Antibacterial activity against Escherichia coli ATCC 25922 assessed as reduction in microbial growth after 12 hrs by microbroth dilution method

Staphylococcus aureus [3] = experiment: Antibacterial activity against Staphylococcus aureus ATCC 6538 assessed as reduction in microbial growth after 12 hrs by microbroth dilution method; format: functional
Staphylococcus aureus [4] = experiment: Antibacterial activity against methicillin-resistant Staphylococcus aureus assessed as reduction in microbial growth after 12 hrs by microbroth dilution method; format: functional
Streptococcus agalactiae = experiment: Antibacterial activity against Streptococcus agalactiae ATCC 13813 assessed as reduction in microbial growth after 12 hrs by microbroth dilution method; format: functional
[5] = biological target: Tyrosine-protein phosphatase non-receptor type 6 (Homo sapiens, UniProt P29350); experiment: Inhibition of human SHP1
Tyrosine-protein phosphatase non-receptor type 6, sequence (P29350 whole entry): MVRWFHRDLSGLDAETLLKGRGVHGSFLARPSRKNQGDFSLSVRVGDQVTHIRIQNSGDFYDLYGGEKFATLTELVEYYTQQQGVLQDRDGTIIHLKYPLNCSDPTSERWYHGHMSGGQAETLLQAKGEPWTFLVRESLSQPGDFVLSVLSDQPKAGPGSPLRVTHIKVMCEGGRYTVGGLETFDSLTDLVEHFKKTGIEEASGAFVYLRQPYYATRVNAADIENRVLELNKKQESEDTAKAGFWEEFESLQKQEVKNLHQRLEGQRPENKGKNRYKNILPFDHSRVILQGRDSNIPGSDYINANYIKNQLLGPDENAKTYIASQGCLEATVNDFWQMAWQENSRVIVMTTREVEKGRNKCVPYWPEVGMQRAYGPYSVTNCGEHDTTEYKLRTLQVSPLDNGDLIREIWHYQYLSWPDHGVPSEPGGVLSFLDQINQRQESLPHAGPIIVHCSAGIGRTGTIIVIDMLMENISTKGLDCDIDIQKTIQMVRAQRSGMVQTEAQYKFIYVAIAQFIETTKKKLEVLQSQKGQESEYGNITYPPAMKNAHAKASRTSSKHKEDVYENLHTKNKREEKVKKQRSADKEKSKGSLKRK

[6] = biological target: T1, Receptor-type tyrosine-protein phosphatase C (Homo sapiens, UniProt P08575); experiment: Inhibition of human CD45
T1 sequence (P08575 whole entry): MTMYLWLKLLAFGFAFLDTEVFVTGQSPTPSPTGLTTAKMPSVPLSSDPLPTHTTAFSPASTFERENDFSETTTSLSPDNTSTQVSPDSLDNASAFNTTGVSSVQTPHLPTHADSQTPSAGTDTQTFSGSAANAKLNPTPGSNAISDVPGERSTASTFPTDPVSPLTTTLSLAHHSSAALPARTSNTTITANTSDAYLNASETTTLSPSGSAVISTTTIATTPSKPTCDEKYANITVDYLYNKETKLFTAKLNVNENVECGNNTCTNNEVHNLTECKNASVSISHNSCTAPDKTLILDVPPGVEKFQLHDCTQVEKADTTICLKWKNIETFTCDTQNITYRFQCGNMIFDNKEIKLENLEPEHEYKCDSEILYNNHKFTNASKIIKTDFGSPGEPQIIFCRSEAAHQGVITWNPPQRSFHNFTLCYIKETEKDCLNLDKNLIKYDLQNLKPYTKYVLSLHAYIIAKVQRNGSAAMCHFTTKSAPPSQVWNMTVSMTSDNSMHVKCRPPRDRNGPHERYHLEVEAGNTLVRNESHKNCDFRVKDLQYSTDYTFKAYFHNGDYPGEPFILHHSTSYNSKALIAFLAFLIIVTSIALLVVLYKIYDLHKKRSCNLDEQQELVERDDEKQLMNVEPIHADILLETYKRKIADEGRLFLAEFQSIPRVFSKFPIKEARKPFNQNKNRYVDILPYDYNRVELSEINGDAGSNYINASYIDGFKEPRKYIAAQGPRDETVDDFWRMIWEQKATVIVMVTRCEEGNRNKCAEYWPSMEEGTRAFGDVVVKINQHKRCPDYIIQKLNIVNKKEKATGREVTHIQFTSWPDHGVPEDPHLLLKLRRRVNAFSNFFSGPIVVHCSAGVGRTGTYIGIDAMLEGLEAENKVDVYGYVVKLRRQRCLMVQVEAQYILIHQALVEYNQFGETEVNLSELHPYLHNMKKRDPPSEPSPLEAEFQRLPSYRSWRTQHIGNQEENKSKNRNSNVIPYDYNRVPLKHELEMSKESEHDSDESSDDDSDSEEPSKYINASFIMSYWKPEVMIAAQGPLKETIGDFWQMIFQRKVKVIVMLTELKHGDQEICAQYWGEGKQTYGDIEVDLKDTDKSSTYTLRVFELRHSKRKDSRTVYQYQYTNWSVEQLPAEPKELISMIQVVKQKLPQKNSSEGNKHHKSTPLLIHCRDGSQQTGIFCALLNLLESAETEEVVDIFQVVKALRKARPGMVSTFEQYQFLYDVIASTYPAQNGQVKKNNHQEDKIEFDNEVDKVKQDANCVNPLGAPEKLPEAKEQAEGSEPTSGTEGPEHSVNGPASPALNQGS

[7] = biological target: T2, Tyrosine-protein phosphatase non-receptor type 1 (Homo sapiens, UniProt P18031); experiment: Inhibition of human PTP1B
T2 sequence (P18031 whole entry): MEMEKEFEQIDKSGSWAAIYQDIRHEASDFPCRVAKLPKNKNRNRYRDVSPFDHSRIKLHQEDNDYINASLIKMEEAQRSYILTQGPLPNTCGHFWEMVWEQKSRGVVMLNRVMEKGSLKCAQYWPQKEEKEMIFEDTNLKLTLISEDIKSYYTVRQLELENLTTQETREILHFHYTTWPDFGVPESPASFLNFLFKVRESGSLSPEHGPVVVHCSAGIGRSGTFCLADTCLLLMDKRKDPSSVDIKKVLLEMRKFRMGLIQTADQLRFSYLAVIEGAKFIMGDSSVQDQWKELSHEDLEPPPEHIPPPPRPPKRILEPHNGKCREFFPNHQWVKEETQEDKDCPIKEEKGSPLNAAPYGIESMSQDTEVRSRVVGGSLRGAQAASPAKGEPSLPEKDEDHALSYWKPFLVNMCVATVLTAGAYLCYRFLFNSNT

[8] = biological target: T3, Tyrosine-protein phosphatase non-receptor type 2 (Homo sapiens, UniProt P17706); experiment: Inhibition of human TCPTP
T3 sequence (P17706 whole entry): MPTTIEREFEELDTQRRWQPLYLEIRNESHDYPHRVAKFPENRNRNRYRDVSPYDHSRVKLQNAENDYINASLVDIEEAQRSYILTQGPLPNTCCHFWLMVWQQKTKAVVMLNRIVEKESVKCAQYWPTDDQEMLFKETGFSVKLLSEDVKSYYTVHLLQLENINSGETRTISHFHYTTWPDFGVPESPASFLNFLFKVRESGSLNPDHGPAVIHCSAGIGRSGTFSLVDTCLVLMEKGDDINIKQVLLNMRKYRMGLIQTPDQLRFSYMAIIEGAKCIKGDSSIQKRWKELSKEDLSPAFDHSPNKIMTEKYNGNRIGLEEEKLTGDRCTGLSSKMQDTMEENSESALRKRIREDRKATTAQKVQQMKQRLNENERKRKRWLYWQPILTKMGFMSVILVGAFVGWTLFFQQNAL

[9] = biological target: Receptor-type tyrosine-protein phosphatase F (Homo sapiens, UniProt P10586); experiment: Inhibition of human LAR
Receptor-type tyrosine-protein phosphatase F, sequence (P10586 whole entry): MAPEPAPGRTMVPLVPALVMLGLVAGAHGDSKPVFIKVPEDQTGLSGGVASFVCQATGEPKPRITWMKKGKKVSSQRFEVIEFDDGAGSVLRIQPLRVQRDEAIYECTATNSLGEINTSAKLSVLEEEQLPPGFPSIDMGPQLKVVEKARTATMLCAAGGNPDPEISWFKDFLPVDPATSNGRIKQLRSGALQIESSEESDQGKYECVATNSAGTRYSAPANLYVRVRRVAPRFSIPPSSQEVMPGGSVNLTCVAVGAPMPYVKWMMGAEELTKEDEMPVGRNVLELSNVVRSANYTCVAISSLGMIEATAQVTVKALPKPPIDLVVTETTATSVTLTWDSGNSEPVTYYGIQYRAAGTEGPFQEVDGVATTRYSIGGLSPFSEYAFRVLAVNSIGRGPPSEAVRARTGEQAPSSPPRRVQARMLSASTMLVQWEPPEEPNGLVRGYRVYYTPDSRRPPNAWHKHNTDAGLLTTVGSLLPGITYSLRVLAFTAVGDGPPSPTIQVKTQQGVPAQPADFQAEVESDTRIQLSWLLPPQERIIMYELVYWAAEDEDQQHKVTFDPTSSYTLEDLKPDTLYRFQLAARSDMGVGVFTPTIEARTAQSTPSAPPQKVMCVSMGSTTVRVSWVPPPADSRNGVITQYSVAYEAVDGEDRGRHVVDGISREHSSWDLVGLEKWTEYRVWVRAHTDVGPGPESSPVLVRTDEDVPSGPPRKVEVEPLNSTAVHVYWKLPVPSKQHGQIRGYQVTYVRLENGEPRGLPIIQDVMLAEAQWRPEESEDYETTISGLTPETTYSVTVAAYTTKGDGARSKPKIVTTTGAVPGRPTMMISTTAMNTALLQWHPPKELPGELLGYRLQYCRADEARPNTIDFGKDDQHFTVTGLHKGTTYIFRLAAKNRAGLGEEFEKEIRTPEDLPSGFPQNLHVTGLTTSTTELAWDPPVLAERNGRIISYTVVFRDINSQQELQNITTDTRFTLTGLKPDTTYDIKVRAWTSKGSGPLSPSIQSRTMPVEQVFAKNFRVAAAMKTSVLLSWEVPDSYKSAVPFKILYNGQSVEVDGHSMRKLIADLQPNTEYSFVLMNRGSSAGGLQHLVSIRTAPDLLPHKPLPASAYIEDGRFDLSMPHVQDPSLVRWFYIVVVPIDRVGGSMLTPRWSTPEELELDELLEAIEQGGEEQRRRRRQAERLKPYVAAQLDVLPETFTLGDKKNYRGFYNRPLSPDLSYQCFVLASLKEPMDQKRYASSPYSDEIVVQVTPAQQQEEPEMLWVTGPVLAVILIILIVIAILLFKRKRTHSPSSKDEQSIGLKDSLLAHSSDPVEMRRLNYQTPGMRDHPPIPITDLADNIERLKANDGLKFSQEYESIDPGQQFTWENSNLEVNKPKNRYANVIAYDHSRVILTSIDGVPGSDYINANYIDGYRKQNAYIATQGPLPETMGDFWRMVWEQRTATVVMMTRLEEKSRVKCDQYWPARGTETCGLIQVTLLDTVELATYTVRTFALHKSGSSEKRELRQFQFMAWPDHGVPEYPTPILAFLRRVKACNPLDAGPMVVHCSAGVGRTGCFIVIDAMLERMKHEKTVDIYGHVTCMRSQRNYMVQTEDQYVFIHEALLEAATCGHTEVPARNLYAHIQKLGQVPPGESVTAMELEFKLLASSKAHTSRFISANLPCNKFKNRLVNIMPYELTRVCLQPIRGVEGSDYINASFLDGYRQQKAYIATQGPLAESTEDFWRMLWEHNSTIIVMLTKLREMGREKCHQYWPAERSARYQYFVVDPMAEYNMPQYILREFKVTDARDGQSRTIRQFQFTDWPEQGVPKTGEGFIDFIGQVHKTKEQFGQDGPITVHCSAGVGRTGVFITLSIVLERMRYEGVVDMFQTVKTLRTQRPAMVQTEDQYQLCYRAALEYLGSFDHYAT

NCI-H1975 = experiment: Cytotoxicity against human NCI-H1975 cells assessed as reduction in cell viability after 24 hrs by CCK8 assay; format: functional, cell-based; conditions: NCI-H1975, 24 h
Escherichia coli [10] = experiment: Antibacterial activity against Escherichia coli assessed as reduction in microbial growth after 12 hrs by broth microdilution method; format: functional
Staphylococcus aureus [11] = experiment: Antibacterial activity against methicillin-resistant Staphylococcus aureus assessed as reduction in microbial growth after 12 hrs by broth microdilution method; format: functional

| SMILES | MIC (Bacillus subtilis) [µg/mL] | MIC [1] [µg/mL] | MIC (Escherichia coli [2]) [µg/mL] | MIC (Staphylococcus aureus [3]) [µg/mL] | MIC (Staphylococcus aureus [4]) [µg/mL] | MIC (Streptococcus agalactiae) [µg/mL] | IC50 [5] [µM] | IC50 [6] [µM] | IC50 [7] [µM] | IC50 [8] [µM] | IC50 [9] [µM] | IC50 (NCI-H1975) [µM] | MIC (Escherichia coli [10]) [µg/mL] | MIC (Staphylococcus aureus [11]) [µg/mL] |
| --- | --- | --- | --- | --- | --- | --- | --- | --- | --- | --- | --- | --- | --- | --- |
| CO[C@@H]1C2Cc3ccc(cc3)O[C@H]3[C@H]4[C@@H](C(C)=C[C@]5(C)CC[C@@]1(C(=O)N2)C(=O)[C@H]45)[C@]1(C)C[C@H](C)C[C@H](C)[C@@H]31 | > 100 | > 100 | > 100 | > 100 | > 100 | > 100 | – | – | – | – | – | – | – | – |
| C[C@@H]1C[C@H](C)[C@H]2[C@H]3Oc4ccc(cc4)C[C@]4(O)C[C@]5(C[C@H](O)OO[C@@]6(C)[C@H]7O[C@@]7(C)[C@H]([C@H]3[C@H]6C5=O)[C@]2(C)C1)C(=O)N4 | 50 | 50 | 50 (≈ 88.1 µM) | 50 | 50 | 50 | > 200 | > 200 | > 200 | > 200 | > 200 | > 80 | – | – |
| CC1=C[C@@]2(C)[C@@H]3C(=O)[C@@]4(C[C@@H]2O)C(=O)NC(Cc2ccc(cc2)O[C@H]2[C@H]3[C@@H]1[C@]1(C)C[C@H](C)C[C@H](C)[C@@H]21)[C@H]4O | 10 | 20 | 5 (≈ 9.62 µM) | 10 | 10 | 10 | 200 | > 200 | 100 | > 200 | > 200 | – | 2 | 2 |
| CO[C@@H]1/C2=C3\O[C@@H](C)[C@@]4(C)C=C(C)[C@@H]5[C@H]([C@H](Oc6ccc(cc6)C[C@]1(O)NC2=O)[C@@H]1[C@@H](C)C[C@@H](C)C[C@]15C)[C@@H]34 | – | – | – | – | – | – | 63 | 190 | 39 | 79 | > 200 | 55 | – | – |
| CC(=O)[C@@H]1[C@@H]2[C@H](Oc3ccc(cc3)C[C@]3(O)C[C@]4(C[C@@H](O)[C@](C)(C=O)[C@@H]2C4=O)C(=O)N3)[C@@H]2[C@@H](C)C[C@@H](C)C[C@]21C | 100 | 100 | 100 (≈ 181 µM) | > 100 | > 100 | > 100 | > 200 | > 200 | > 200 | > 200 | > 200 | > 80 | – | – |
| CO[C@@]12Cc3ccc(cc3)O[C@H]3[C@H]([C@H]4C(=O)[C@](C[C@@H](O)[C@]4(C)C=O)(C1)C(=O)N2)[C@@H](C(C)=O)[C@]1(C)C[C@H](C)C[C@H](C)[C@@H]31 | 100 | 100 | 100 (≈ 177 µM) | > 100 | > 100 | > 100 | 100 | > 200 | 58 | 130 | > 200 | – | – | – |
| CO[C@@H]1C2Cc3ccc(cc3)O[C@H]3[C@@H]4[C@H]5C(=O)[C@@]1(C[C@@H](O)[C@@]5(C)C=C(C)[C@H]4[C@]1(C)C[C@H](C)C[C@H](C)[C@@H]31)C(=O)N2 | 10 | 20 | 5 (≈ 9.37 µM) | 20 | 20 | 20 | 100 | > 200 | 100 | > 200 | > 200 | – | 2 | 2 |
